The record followed here is ChEMBL document CHEMBL1201862, “PubChem BioAssay data set” (2004).

SMILES strings stand for the structures.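 96-well plates; 48 h exposure; 5 concentrations. Endpoints by linear interpolation between flanking doses. Not reached: highest tested concentration assigned. Abbreviation: GI50, concentration required for 50% inhibition of growth.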 Activity calls are given as the source filed them. Cut-off read from the data, not from the text of the source: active = GI50 up to about 1.1 µM and inactive = higher. Some results are limits rather than exact numbers.

Among the test systems are KM-20L2; LXFL 529; SNB-78; DMS-114; XF498; M19-MEL; DLD-1; HOP-18; RXF 631.
What all share (experiment): NCI anticancer screen, dose series, 48 h

Turning to `O=C1NC2(C=Cc3c(ccc4ccccc34)O2)Oc2ccccc21` (centres undefined), the GI50 in the assay on KM-20L2 is 25.8 µM (inactive); with LXFL 529, 18.3 µM (inactive); with SNB-78, 20.7 µM (inactive); with DMS-114, 13.2 µM (inactive); with XF498 it was 19.1 µM (inactive); in the assay with M19-MEL, 25.1 µM (inactive).

In the case of `COc1ccc(-c2[nH]c3ccccc3c2CCNS(=O)(=O)c2ccc(C)cc2)cc1`, the GI50 in the assay on KM-20L2 was > 8.47 µM (inactive); in the assay on LXFL 529, > 10 µM (inactive); in the assay with DLD-1, 8.09 µM (inactive); with SNB-78 it was > 10 µM (inactive); in the assay on DMS-114, > 9.55 µM (inactive); in the assay on HOP-18, > 7.4 µM (inactive). Moreover, the values for the GI50 in the assay with XF498, in the assay on RXF 631 and in the assay with M19-MEL were > 8.83 µM (inactive), > 8.49 µM (inactive) and > 8.39 µM (inactive), respectively.

As to `CC1CC2C(=O)N(c3ccccc3)C(=O)C2c2[nH]c3ccccc3c21` (centres undefined), the GI50 in the assay with LXFL 529 was 42.5 µM (inactive); in the assay with DLD-1 it was 89.3 µM (inactive); with SNB-78, > 100 µM (inactive); in the assay on DMS-114, 30.7 µM (inactive); with RXF 631 it was 34.3 µM (inactive); in the assay with M19-MEL, 41.5 µM (inactive).

Take `O=C1CCC(=O)c2ccccc2N1`: the GI50 in the assay with KM-20L2, in the assay on LXFL 529, with DLD-1, in the assay with DMS-114, with HOP-18 and in the assay on XF498 was > 100 µM (inactive) in each case. The GI50 in the assay with M19-MEL is > 100 µM (inactive).

As for `CCc1ccccc1NC(=O)C(=O)C(C(=O)c1ccc(OC)cc1)c1ccc(OC)cc1` (centres undefined), the GI50 with KM-20L2, in the assay on LXFL 529, with DLD-1, in the assay with SNB-78, in the assay on DMS-114 and with HOP-18 was > 100 µM (inactive) throughout. The GI50 in the assay with XF498 and in the assay with RXF 631 was > 100 µM (inactive) each time.

In the case of `O=C(NCCCCCCCCNC(=O)c1cnc2ccccc2n1)c1cnc2ccccc2n1`, the GI50 in the assay on LXFL 529, with DLD-1, with SNB-78, in the assay with DMS-114, with HOP-18 and in the assay on XF498 was > 100 µM (inactive) throughout. The GI50 in the assay on M19-MEL is > 100 µM (inactive).

As for `Cc1nc2ccccc2c(=O)n1-c1ccccc1F`, the GI50 in the assay on KM-20L2, in the assay with LXFL 529, with DLD-1, in the assay with SNB-78, with DMS-114 and in the assay with HOP-18 was > 100 µM (inactive) in each case. Besides, in the assay on M19-MEL, the GI50 was > 100 µM (inactive).

Regarding `CN(OC(=O)CC(=O)c1ccccc1)C(=O)Cc1ccccc1`, the GI50 in the assay with KM-20L2, in the assay with LXFL 529, with DLD-1, in the assay on SNB-78, in the assay with DMS-114 and in the assay with RXF 631 was > 100 µM (inactive) in each case. The GI50 in the assay with M19-MEL is > 100 µM (inactive).

For `COC(=O)c1c(CC#N)cccc1CC#N`, the GI50 in the assay on KM-20L2, with LXFL 529, in the assay with DLD-1, with DMS-114, in the assay with XF498 and in the assay on RXF 631 was > 100 µM (inactive) throughout. In addition, in the assay with M19-MEL, the GI50 is > 100 µM (inactive).

In the case of `C=C(CO)CC(O)c1cc(OC)ccc1OC` (centres undefined), the GI50 with LXFL 529, with XF498 and in the assay with M19-MEL was > 100 µM (inactive) each time.

As to `O=C1c2ccccc2C(=O)N1C/C=N/NS(=O)(=O)c1ccc(F)cc1`, the GI50 with KM-20L2, in the assay with LXFL 529, in the assay on DLD-1, in the assay with DMS-114, with XF498 and in the assay with RXF 631 was > 100 µM (inactive) throughout. Further, the GI50 in the assay with M19-MEL is > 100 µM (inactive).

As for `OCCN1CCN2C=C(C3CCCC4N(CCO)CCN34)CCC21` (centres undefined), the GI50 was > 100 µM (inactive) in the assay with KM-20L2; 43.8 µM (inactive) in the assay with LXFL 529; 22.7 µM (inactive) in the assay with DLD-1; 37.9 µM (inactive) with SNB-78; 25.4 µM (inactive) in the assay on DMS-114; > 100 µM (inactive) with HOP-18. Besides, the values for the GI50 in the assay on XF498 and in the assay with M19-MEL were 48.1 µM (inactive) and 34.7 µM (inactive), respectively.

Turning to `Cc1nc(Nc2ccc(Cl)cc2)sc1C(=O)NNC(=S)NN`, the GI50 with KM-20L2 was 17.5 µM (inactive); in the assay on LXFL 529, 20 µM (inactive); in the assay on DLD-1, 16.6 µM (inactive); with SNB-78 it was 19.5 µM (inactive); with DMS-114, 17.5 µM (inactive); in the assay with HOP-18 it was 18.3 µM (inactive). Also, the GI50 was 21.2 µM (inactive) in the assay on XF498, 19.5 µM (inactive) with RXF 631 and 22.3 µM (inactive) in the assay on M19-MEL.

For the compound `C=C(C)CCOC(c1ccccc1)(c1ccccc1)c1ccccc1`, the GI50 in the assay on KM-20L2 was 23.5 µM (inactive); in the assay on LXFL 529, 45.8 µM (inactive); in the assay on DLD-1, 60.4 µM (inactive); in the assay with SNB-78, 70.1 µM (inactive); in the assay on XF498 it was 26.1 µM (inactive); in the assay on RXF 631, 55.5 µM (inactive). For the same compound, in the assay with M19-MEL, the GI50 is 27.9 µM (inactive).

Take `Cn1nc(-c2ccccc2)c(N=[N+]=[N-])cc1=O`: the GI50 in the assay with KM-20L2, with LXFL 529, in the assay with DMS-114, in the assay with XF498 and in the assay on M19-MEL was > 100 µM (inactive) throughout.

For the compound `CCCCCCCCCCCCCC(=O)OCC1OC(n2cc(F)c(=O)[nH]c2=O)C(NC(=O)OCc2ccccc2)C(OC(=O)CCCCCCCCCCCCC)C1O` (centres undefined), the GI50 in the assay with KM-20L2, with LXFL 529, with DLD-1, in the assay on SNB-78, in the assay on DMS-114 and in the assay on HOP-18 was > 100 µM (inactive) each time. For the same compound, the GI50 in the assay on XF498, with RXF 631 and in the assay with M19-MEL was > 100 µM (inactive) throughout.

Take `Cc1ccc(S(=O)(=O)N2CCC3(C(/C=C/c4ccccc4)=Nc4ccccc43)C2c2ccccc2)cc1` (centres undefined): the GI50 in the assay on KM-20L2 is > 100 µM (inactive); in the assay with LXFL 529 it was > 100 µM (inactive); in the assay with DLD-1, > 100 µM (inactive); with SNB-78, > 100 µM (inactive); in the assay on DMS-114, > 100 µM (inactive); with XF498 it was 63.1 µM (inactive). The GI50 with M19-MEL is > 100 µM (inactive).

With `CN(C)c1ccc(/C=C2\Cc3ccccc3C2=O)cc1Br`, the GI50 in the assay on KM-20L2 is 81.8 µM (inactive); in the assay on LXFL 529, 33.8 µM (inactive); in the assay on DLD-1 it was 47.5 µM (inactive); in the assay on SNB-78, 59.8 µM (inactive); in the assay with DMS-114, 29.6 µM (inactive); with XF498 it was 26.1 µM (inactive). Besides, in the assay on M19-MEL, the GI50 is 51.1 µM (inactive).

On to `N#C/C(=C1\OC(=N)C(c2ccc(Cl)cc2)=C1O)c1ccc(Cl)cc1`, for which the GI50 was 18.4 µM (inactive) in the assay on KM-20L2; 11.7 µM (inactive) with LXFL 529; 15.3 µM (inactive) with DLD-1; 12.8 µM (inactive) in the assay with SNB-78; 14.8 µM (inactive) in the assay on DMS-114; 16.9 µM (inactive) in the assay on HOP-18. The GI50 with M19-MEL was 15.1 µM (inactive).

For `COC(=O)OCC1OC(N2C(=O)NC(=O)C(Br)C2N=[N+]=[N-])CC1OC(=O)OC` (centres undefined), the GI50 in the assay with KM-20L2, in the assay with LXFL 529, with DLD-1, in the assay on SNB-78, with DMS-114 and with XF498 was > 100 µM (inactive) in each case. For the same compound, the GI50 in the assay on M19-MEL is > 100 µM (inactive).

For `COc1ccc2c(c1)[n+]([O-])c(C(=O)C/C(=N/NC(=O)C[N+](C)(C)C)C(=O)Nc1cccc(C)c1C)c(C)[n+]2[O-]`, the GI50 in the assay on KM-20L2, with LXFL 529, in the assay with DLD-1, in the assay with SNB-78, in the assay with DMS-114 and in the assay on HOP-18 was > 100 µM (inactive) throughout. Besides, the GI50 in the assay on RXF 631 and with M19-MEL was > 100 µM (inactive) in each case.

As to `Cn1c(=O)c2c(ncn2CCCCn2ccnc2[N+](=O)[O-])n(C)c1=O`, the GI50 in the assay on KM-20L2, in the assay with LXFL 529, in the assay with SNB-78, in the assay on DMS-114, in the assay on XF498 and with M19-MEL was > 100 µM (inactive) in each case.

Turning to `C=CC(=O)NCCSCCCOC1(C(=O)O)CC(O)C(NC(C)=O)C(C(O)C(O)CO)O1` (centres undefined), the GI50 in the assay on LXFL 529, with DLD-1, in the assay on SNB-78, with DMS-114 and in the assay with XF498 was > 100 µM (inactive) throughout.

As to `CC(=O)OC[C@]1(O)CC[C@@]23CC1C[C@@H]2CCC1C(C)(C)CCC[C@@]13C` (some centres undefined), the GI50 with KM-20L2 was 17.3 µM (inactive); in the assay with LXFL 529, 11.2 µM (inactive); with DLD-1, 15.3 µM (inactive); with SNB-78 it was 16.1 µM (inactive); in the assay with DMS-114, 11.2 µM (inactive); with XF498 it was 14.1 µM (inactive). Moreover, the values for the GI50 in the assay on RXF 631 and in the assay with M19-MEL were 14.2 µM (inactive) and 16 µM (inactive), respectively.

As to `CC(=O)NC1C(OCc2ccccc2)OC(CO)C(O)C1OC(C)C(=O)NC(C)C(=O)N[C@@H](CCC(=O)OCCCNC1c2ccccc2Nc2cccc([N+](=O)[O-])c21)C(N)=O` (some centres undefined), the GI50 in the assay on KM-20L2 is < 0.01 µM (active); in the assay on LXFL 529, < 0.01 µM (active); in the assay with DLD-1, < 0.01 µM (active); in the assay on SNB-78 it was 0.0121 µM (active); in the assay with HOP-18, < 0.01 µM (active).

As to `COC(=O)C1[C@@H](C(=O)OC)C(=O)O[C@H]1c1cc(OC)c(OC)c(OC)c1` (some centres undefined), the GI50 in the assay with KM-20L2, with LXFL 529, in the assay with DLD-1, in the assay on SNB-78, in the assay on DMS-114 and in the assay on HOP-18 was > 100 µM (inactive) each time. In addition, the GI50 in the assay with M19-MEL was > 100 µM (inactive).
